Measurements reported in patent US7368578B2, “Five-membered heterocyclic compounds” (Takeda Pharmaceutical Company Limited, priority 2002, dated 2008).

Assays:
human PPARγ1 = target: T1, human PPARγ1 (Homo sapiens, UniProt P37231); test: Human PPARγ1 antagonist assay (luciferase reporter in PPARγ:RXRα:4ERPP/CHO-K1 cells); format: cell-based; conditions: test compound 10^−6 M, 10 nM compound A as stimulant, luciferase activity, 24 hrs, read-out: Inhibitory rate (%)
T1 construct: expressed in transfected cells; host or cells: CHO-K1 cells stably transfected with pVgRXR2-hPPARγ and reporter plasmid pGL3-4ERPP-TK neo
T1 sequence (P37231 1-477 isoform P37231-2): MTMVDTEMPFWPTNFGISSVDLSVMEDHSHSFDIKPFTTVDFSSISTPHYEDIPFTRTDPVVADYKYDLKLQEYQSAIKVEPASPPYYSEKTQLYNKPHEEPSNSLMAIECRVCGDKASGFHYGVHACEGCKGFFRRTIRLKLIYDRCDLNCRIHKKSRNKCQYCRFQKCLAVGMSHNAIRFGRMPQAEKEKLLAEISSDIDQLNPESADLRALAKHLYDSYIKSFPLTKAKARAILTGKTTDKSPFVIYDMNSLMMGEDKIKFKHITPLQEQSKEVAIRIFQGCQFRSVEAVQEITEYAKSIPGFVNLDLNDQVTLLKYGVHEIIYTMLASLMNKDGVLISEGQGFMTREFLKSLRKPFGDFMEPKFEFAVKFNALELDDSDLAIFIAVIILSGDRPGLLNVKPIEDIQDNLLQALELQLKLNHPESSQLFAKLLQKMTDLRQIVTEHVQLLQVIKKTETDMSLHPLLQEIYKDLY
T1 sequence (P19793 1-462 partner): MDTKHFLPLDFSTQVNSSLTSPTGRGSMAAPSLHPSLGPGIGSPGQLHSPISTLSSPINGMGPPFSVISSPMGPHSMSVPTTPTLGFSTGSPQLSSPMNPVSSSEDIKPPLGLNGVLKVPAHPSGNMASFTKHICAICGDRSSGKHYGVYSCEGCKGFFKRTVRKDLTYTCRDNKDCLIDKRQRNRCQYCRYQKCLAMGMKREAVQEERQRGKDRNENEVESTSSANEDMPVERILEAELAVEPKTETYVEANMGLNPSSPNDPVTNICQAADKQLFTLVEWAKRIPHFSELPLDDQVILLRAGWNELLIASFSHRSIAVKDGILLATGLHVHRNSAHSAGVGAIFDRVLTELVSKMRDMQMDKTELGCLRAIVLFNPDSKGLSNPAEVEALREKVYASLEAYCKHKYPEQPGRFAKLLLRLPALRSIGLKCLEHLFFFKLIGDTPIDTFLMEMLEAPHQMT
Method: PPARγ:RXRα:4ERPP/CHO-K1 cells (obtained in Reference Example 5a) cultured in Ham's F-12 medium (GIBCO, Inc.) supplemented with 10% fetal bovine serum (TRACE SCIENTIFIC, Ltd.) were seeded in a well of a 96 well white plate at 2×10^4 cells/well and cultured under 37° C. 5% CO2 conditions for 24 hrs. After removal of the medium, Ham's F-12 medium (GIBCO) containing 60 μl of 0.1% BSA (not containing fatty acid) (Wako Pure Chemical Industries, Ltd.), 20 μl of 10^−5M or 10^−6 M test compound and 20 μl of compound A having a final concentration of 10 nM as a stimulant were added, and the cells were cultured under 37° C. 5% CO2 conditions for 24 hrs. After removal of the medium, 40 μl of Pickagene LT7.5 (Wako Pure Chemical Industries, Ltd.) 2-fold diluted with HBSS (HANKS' BALANCED SALT SOLUTION) (BIO WHITTAKER Inc.) was added. After stirring, luciferase activity was measured using 1420 ARVO Multilabel Counter (Wallac, Inc.). In addition, a test similar to the above was conducted for the non-use of the aforementioned test compound alone and for the non-use of the aforementioned test compound and compound A to determine the luciferase activity.
The human PPARγ1 antagonistic activity of the test compound was evaluated using percentages (% inhibition) wherein the luciferase activity when 10 nM compound A alone was added was 0%, and the luciferase activity when the test compound and compound A were not added was 100%. The concentration of the test compound was 10^−5 M for the compounds of Example 42 and 315 and 10^−6 M for other test compounds.
After a CHO-K1 cell cultured in a cell culture flask (150 cm^2) (produced by Corning Costar Corporation, USA) containing Ham's F-12 medium (produced by Life Technologies, Inc., USA) supplemented with 10% fetal bovine serum (produced by Life Technologies, Inc., USA) was detached by treating with 0.5 g/L trypsin-0.2 g/L EDTA (ethylenediaminetetraacetic acid) (produced by Life Technologies, Inc., USA), the cell was washed with PBS (phosphate-buffered saline) (produced by Life Technologies, Inc., USA), centrifuged (1000 rpm, 5 minutes), and then suspended in PBS. Subsequently, the DNA was introduced into the cells under the conditions shown below using GENE PULSER (produced by Bio-Rad Laboratories, USA).
Namely, to a cuvette having a 0.4 cm gap, added were 8×10^6 cells and 10 μg of plasmid pVgRXR2-hPPARγ obtained in Reference Example 4a and 10 μg of reporter plasmid pGL3-4ERPP-TK neo obtained in Reference Example 2a, which was subjected to electroporation at the voltage of 0.25 kV under the capacitance of 960 μF. Subsequently, the cell was transferred into a Ham's F-12 medium containing 10% fetal bovine serum and cultured for 24 hours and then the cells were detached again and centrifuged, and then suspended in HAM F12 medium containing 10% fetal bovine serum supplemented with 500 μg/ml of GENETICIN (produced by Life Technologies, Inc., USA) and 250 μg/ml of ZEOCIN (produced by Invitrogen, USA). The obtained suspension was diluted to the density of 10^4 cells/ml and inoculated to a 96-well plate (produced by Corning Costar Corporation, USA), which was cultured in a CO2 gas incubator at 37° C., whereby obtaining a GENETICIN- and ZEOCIN-resistant transformant. Subsequently, after the transformant cell line thus obtained was cultured in a 24-well plate (produced by Corning Costar Corporation, USA), selected was a cell line in which the luciferase was expressed and induced, i.e., PPARγ:RXRα:4ERPP/CHO-K1 cell by the addition of 10 μM pioglitazone hydrochloride.

SMILES | inhibition at 1 µM (human PPARγ1) [%] | melting point [°C]
COc1cc(COc2nn(-c3ccccc3)cc2/C=C/c2csc(C(C)(C)C)n2)ccc1OCc1nc(-c2ccc(CC(=O)O)cc2)oc1C [Example 359, {4-[4-({4-[({4-[(E)-2-(2-tert-butyl-1,3-thiazol-4-yl)ethenyl]-1-phenyl-1H-pyrazol-3-yl}oxy)methyl]-2-methoxyphenoxy}methyl)-5-methyl-1,3-oxazol-2-yl]phenyl}acetic acid] | 111 | –
COc1cc(COc2nn(-c3ccccc3)cc2/C=C/c2coc(C(C)(C)C)n2)ccc1OCc1nc(-c2ccc(CC(=O)O)cc2)oc1C [Example 371, {4-[4-({4-[({4-[(E)-2-(2-tert-butyl-1,3-oxazol-4-yl)ethenyl]-1-phenyl-1H-pyrazol-3-yl}oxy)methyl]-2-methoxyphenoxy}methyl)-5-methyl-1,3-oxazol-2-yl]phenyl}acetic acid] | 114 | –
CCc1nc(/C=C/c2cn(-c3ccccc3)nc2OCc2ccc(OCc3nc(-c4cccc(-c5nnn[nH]5)c4)oc3C)c(OC)c2)cs1 [Example 373, 5-{3-[4-({4-[({4-[(E)-2-(2-ethyl-1,3-thiazol-4-yl)ethenyl]-1-phenyl-1H-pyrazol-3-yl}oxy)methyl]-2-methoxyphenoxy}methyl)-5-methyl-1,3-oxazol-2-yl]phenyl}-1H-tetrazole] | 112 | 144 to 147
